According to PMC12024577, “Synthesis and Antiproliferative Effects of Grossheimin-Derived Aminoanalogues” (Biomolecules, 2025):
Read-outs that look alike come from different tables or passages of the source.

Assays:
CDD-19Lu fibroblasts = assay: Cytotoxic effect on fibroblasts; type: cell-based
Description: (§1) The anticancer activity of the compounds was tested in 96-well flat-bottomed microtiter plates. In this assay, the two-fold serial dilutions of the compounds (concentration range: 100–0.19 μM) were made in a 100 μL RPMI 1640 medium. Next, 1 × 10^4 of human colonic adenocarcinoma cells (Colo205 or Colo320) in a 100 μL RPMI 1640 medium were added to each well except for the medium control wells. The starting concentration of the solvent DMSO in the plate was 2% v/v. The samples were incubated at 37 °C for 24 h. At the end of the incubation, 20 μL of an MTT (thiazolyl blue tetrazolium bromide) solution (from a 5 mg/mL stock solution) was pipetted to each well. After incubation at 37 °C for 4 h, 100 μL of a sodium dodecyl sulfate (SDS) solution (10% SDS in 0.01 M HCl) was pipetted to each well, and the plates were kept at 37 °C overnight. The growth of the cells was determined by measuring the optical density (OD) at 540 nm (refering to 630 nm) with a Multiscan EX ELISA reader (Thermo Labsystems, Cheshire, WA, USA). The inhibition of cell growth was calculated as IC50 values, defined as the inhibitory dose that reduces the growth of the cells exposed to the tested compounds by 50%. The IC50 values and the SD of the triplicate experiments were determined using GraphPad Prism software version 5.00 for Windows with a non-linear regression curve fit (GraphPad Software, San Diego, CA, USA; www.graphpad.com). Doxorubicin (from a 2 mg/mL stock solution, Teva Pharmaceuticals, Singapore) served as a positive control.
3. Cytotoxic effects of grossheimin-based aminoanalogues
Table S1. Cytotoxic effects of grossheimin-based aminoanalogues on colon adenocarcinoma cell lines and
CDD-19Lu fibroblasts. Doxorubicin (DOX) was applied as a positive control . n.d: not determined. Starting
concentration of grossheimin-based aminoanalogs and DOX in the assay with CDD-19Lu fibroblasts is 100 and […]

[1] = test system: colorectal cancer HCT-116 cell lines; design: method as in doi:10.14188/j.ajsh.2023.03.009; settings: cited from earlier work
[2] = test system: Colo320/MDR-LRP (doxorubicin-resistant ABCB1- and LRP-expressing human colon adenocarcinoma cell line); assay: MTT assay, cytotoxic effect on Colo320; type: cell-based; settings: COLO 320, 24 h incubation
Description: (§2) The doxorubicin-sensitive Colo205 (ATCC-CCL-222) and the doxorubicin-resistant ABCB1- and LRP-expressing Colo320/MDR-LRP (ATCC-CCL-220.1) human colon adenocarcinoma cell lines were obtained from LGC Promochem in Teddington, UK. For culturing, the RPMI 1640 medium was applied and was supplemented with a 10% heat-inactivated foetal bovine serum (FBS), 2 mM L-glutamine, 1 mM Na-pyruvate and 10 mM HEPES along with nystatin and gentamicin.
as §1
(§3) Since several sesquiterpene lactone-based aminoadducts exerted a significant cytotoxic action on different human cancer cell lines, the in vitro cytotoxic activities of the prepared grossheimin-based amino analogues were also tested on human colon adenocarcinoma lines, including Colo205 and Colo320 by MTT assay.

MDA-MB-231 = test system: MDA-MB-231; design: method as in doi:10.14188/j.ajsh.2023.03.009; settings: cited from earlier work
[3] = test system: Colo205 (doxorubicin-sensitive human colon adenocarcinoma cell line); assay: MTT assay, cytotoxic effect on Colo205; type: cell-based; settings: COLO 205, 24 h incubation
Description: as §2, §1, §3

[4] = test system: human colon adenocarcinoma lines, including Colo205 and Colo320; assay: MTT assay, colon adenocarcinoma lines; type: cell-based; settings: text summary over Colo205 and Colo320, read-out: IC50 against colon adenocarcinoma cancers / malignant cell lines
Description: as §2
The anticancer activity of the compounds was tested in 96-well flat-bottomed microtiter plates. In this assay, the two-fold serial dilutions of the compounds (concentration range: 100–0.19 μM) were made in a 100 μL RPMI 1640 medium. Next, 1 × 10^4 of human colonic adenocarcinoma cells (Colo205 or Colo320) in a 100 μL RPMI 1640 medium were added to each well except for the medium control wells. The starting concentration of the solvent DMSO in the plate was 2% v/v. The samples were incubated at 37 °C for 24 h. […] The growth of the cells was determined by measuring the optical density (OD) at 540 nm (refering to 630 nm) with a Multiscan EX ELISA reader (Thermo Labsystems, Cheshire, WA, USA). […] The IC50 values and the SD of the triplicate experiments were determined using GraphPad Prism software version 5.00 for Windows with a non-linear regression curve fit (GraphPad Software, San Diego, CA, USA; www.graphpad.com). […]

[5] = Fibroblast, fibroblasts, Table 2, read-out: IC50 CDD-19Lu
[6] = Homo sapiens, CCD 19Lu, fibroblasts, Table S1, starting concentration 100 (analogues) and 8.62 (DOX), read-out: IC50 CCD-19Lu

SMILES	IC50 (CDD-19Lu fibroblasts; [6]) [µM]	IC50 ([2]; Table S1) [µM]	IC50 ([3]; Table S1) [µM]	also measured
C=C1C(=O)O[C@H]2[C@H]1[C@@H](O)CC(=C)[C@@H]1CC(=O)[C@@H](C)[C@H]21 [Compound 1, Grossheimin]	–	–	–	IC50 (CDD-19Lu fibroblasts; Fibroblast, read-out: IC50 CDD-19Lu): > 100 µM; IC50 [1]: 30.9 µM; IC50 ([2]; Table 2): 27.9 ± 2 µM; IC50 (MDA-MB-231): 16.9 µM; IC50 ([3]; Table 2): 23.3 ± 2.05 µM
C=C1C(=O)O[C@H]2[C@H]1[C@@H](OC(C)=O)CC(=C)[C@@H]1CC(=O)[C@@H](C)[C@H]21 [Compound 2]	–	–	–	IC50 (CDD-19Lu fibroblasts; [5]): > 100 µM; IC50 [4]: ~9 µM; IC50 ([2]; Table 2): 9.44 ± 0.41 µM; IC50 ([3]; Table 2): 8.21 ± 0.51 µM
C=C1C[C@H](O)[C@@H]2[C@H](OC(=O)[C@H]2C)[C@H]2[C@H](C)[C@H](O)C[C@@H]12 [Compound 3]	> 100	> 100	> 100	–
C=C1C[C@H](OC(C)=O)[C@@H]2[C@H](OC(=O)[C@H]2C)[C@H]2[C@H](C)[C@@H](OC(C)=O)C[C@@H]12 [Compound 4]	> 100	> 100	> 100	–
C=C1C[C@H](O)[C@@H]2[C@H](OC(=O)[C@H]2CNCc2ccccc2)[C@H]2[C@H](C)C(=O)C[C@@H]12 [Compound 5]	> 100	> 100	> 100	–
C=C1C[C@H](O)[C@@H]2[C@H](OC(=O)[C@H]2CNCc2ccccc2)[C@H]2[C@H](C)[C@@H](O)C[C@@H]12 [Compound 6]	> 100	> 100	> 100	–
C=C1C[C@H](O)[C@@H]2[C@H](OC(=O)[C@H]2CNC=O)[C@H]2[C@H](C)C(=O)C[C@@H]12 [Compound 7]	–	> 100	> 100	–
C=C1C[C@H](O)[C@@H]2[C@H](OC(=O)[C@H]2CSCc2ccccc2)[C@H]2[C@H](C)C(=O)C[C@@H]12 [Compound 8]	> 100	> 100	> 100	–
C=C1C[C@H](O)[C@@H]2[C@H](OC(=O)[C@H]2CSCc2ccccc2)[C@H]2[C@H](C)[C@H](O)C[C@@H]12 [Compound 9]	> 100	> 100	> 100	–
C=C1C[C@H](O)[C@@H]2[C@H](OC(=O)[C@H]2COC)[C@H]2[C@H](C)C(=O)C[C@@H]12 [Compound 10]	–	> 100	> 100	–
C=C1C[C@H](O)[C@@H]2[C@H](OC(=O)[C@H]2Cn2cnc3ccccc32)[C@H]2[C@H](C)C(=O)C[C@@H]12 [Compound 11f]	> 100	> 100	> 100	–
C=C1C(=O)O[C@H]2[C@H]1[C@@H](O)CC(=C)[C@@H]1C[C@H](O)[C@@H](C)[C@H]21 [Compound 12]	–	–	–	IC50 (CDD-19Lu fibroblasts; [5]): > 100 µM; IC50 ([2]; Table 2): 53.6 ± 1.6 µM; IC50 ([3]; Table 2): 63.8 ± 1.32 µM
C=C1C(=O)O[C@H]2[C@H]1[C@@H](OC(C)=O)CC(=C)[C@@H]1C[C@H](OC(C)=O)[C@@H](C)[C@H]21 [Compound 13]	–	–	–	IC50 (CDD-19Lu fibroblasts; [5]): 29.1 ± 0.46 µM; IC50 [4]: ~8 µM; IC50 ([2]; Table 2): 6.98 ± 0.29 µM; IC50 ([3]; Table 2): 8.21 ± 0.51 µM
C=C1C[C@H](O)[C@@H]2[C@H](OC(=O)[C@H]2CNC=O)[C@H]2[C@H](C)[C@@H](O)C[C@@H]12 [Compound 14]	–	> 100	> 100	–
C=C1C[C@H](O)[C@@H]2[C@H](OC(=O)[C@H]2COC)[C@H]2[C@H](C)[C@@H](O)C[C@@H]12 [Compound 15]	–	> 100	> 100	–
C=C1C[C@H](O)[C@@H]2[C@H](OC(=O)[C@H]2Cn2cnc3ccccc32)[C@H]2[C@H](C)[C@@H](O)C[C@@H]12 [Compound 16a]	> 100	> 100	> 100	–
COc1cccc2c1C(=O)c1c(O)c3c(c(O)c1C2=O)C[C@@](O)(C(=O)CO)C[C@@H]3O[C@H]1C[C@H](N)[C@H](O)[C@H](C)O1 [DOX, Doxorubicin, reference compound]	–	–	–	IC50 (CDD-19Lu fibroblasts; [5]): > 8.62 µM; IC50 ([2]; Table 2): 4.36 ± 0.08 µM; IC50 ([3]; Table 2): 3.21 ± 0.03 µM
